According to patent US20230278972A1, “SUBSTITUTED HALOALKYL SULFONANILIDE HERBICIDES” (FMC Corporation, priority 2020, published 2023):

What was measured:
Format in all cases: in vivo
kochia (Bassia scoparia) [1] = assay: Test A preemergence, kochia; conditions: Preemergence; for Kochia plant response rating: 125 g ai/ha, visual injury on 0 to 100 scale (0 no effect, 100 complete control), approximately 10 days; for Plant response rating, Kochia: 0 to 100 scale (0 no effect, 100 complete control)
Method in brief: (§1)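 Test chemicals, formulated in a non-phytotoxic solvent mixture with surfactant, were sprayed postemergence on plants 2 to 10 cm tall at the one- to two-leaf stage. Preemergence treatment was a directed soil spray onto freshly seeded pots. Both used a loam soil and sand blend.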

[2] = test system: pigweed (Amaranthus retroflexus); assay: Test A preemergence, pigweed; conditions: for Pigweed plant response rating: 125 g ai/ha, visual injury on 0 to 100 scale (0 no effect, 100 complete control), approximately 10 days; for Plant response rating, Pigweed: 0 to 100 scale (0 no effect, 100 complete control)
Method in brief: (§2)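 Preemergence: pigweed seeds in loam soil–sand blend received a directed soil spray of test chemicals in a non-phytotoxic solvent with surfactant. Postemergence: barnyardgrass, wheat and galium in pots of the same soil, 2 to 10 cm tall at one- to two-leaf stage, sprayed with the same formulation.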

corn (Zea mays) = assay: Test A postemergence, corn; conditions: Postemergence
Method in brief: as §1

[3] = test system: wheat (Triticum aestivum); assay: Test A postemergence, wheat; conditions: Postemergence
Method in brief: as §2

[4] = test system: pigweed (Amaranthus retroflexus); assay: Test A postemergence, pigweed; conditions: Postemergence
Method in brief: as §1

[5] = test system: Foxtail, Giant (giant foxtail, Setaria faberi); assay: Test A preemergence, Foxtail, Giant; conditions: Preemergence; for Foxtail, Giant plant response rating: 125 g ai/ha, visual injury on 0 to 100 scale (0 no effect, 100 complete control), approximately 10 days; for Plant response rating, Foxtail, Giant: 0 to 100 scale (0 no effect, 100 complete control)
Method in brief: as §1

[6] = test system: barnyardgrass (Echinochloa crus-galli); assay: Test A preemergence, barnyardgrass; conditions: Preemergence; for Barnyardgrass plant response rating: 125 g ai/ha, visual injury on 0 to 100 scale (0 no effect, 100 complete control), approximately 10 days; for Plant response rating, Barnyardgrass: 0 to 100 scale (0 no effect, 100 complete control)
Method in brief: as §1

[7] = test system: Foxtail, Giant (giant foxtail, Setaria faberi); assay: Test A postemergence, Foxtail, Giant; conditions: Postemergence
Method in brief: as §1

[8] = test system: blackgrass (Alopecurus myosuroides); assay: Test A postemergence, blackgrass; conditions: Postemergence, 0 to 100 scale (0 no effect, 100 complete control)
Method in brief: as §1

[9] = test system: Ryegrass, Italian (Italian ryegrass, Lolium multiflorum); assay: Test A postemergence, Ryegrass, Italian; conditions: Postemergence
Method in brief: as §1

[10] = test system: ragweed (common ragweed, Ambrosia artemisiifolia); assay: Test A postemergence, ragweed; conditions: Postemergence
Method in brief: as §1

[11] = test system: Ryegrass, Italian (Italian ryegrass, Lolium multiflorum); assay: Test A preemergence, Ryegrass, Italian; conditions: Preemergence; for Ryegrass, Italian plant response rating: 125 g ai/ha, visual injury on 0 to 100 scale (0 no effect, 100 complete control), approximately 10 days; for Plant response rating, Ryegrass, Italian: 0 to 100 scale (0 no effect, 100 complete control)
Method in brief: as §1

[12] = test system: barnyardgrass (Echinochloa crus-galli); assay: Test A postemergence, barnyardgrass; conditions: Postemergence, 0 to 100 scale (0 no effect, 100 complete control)
Method in brief: as §2

[13] = test system: galium (catchweed bedstraw, Galium aparine); assay: Test A postemergence, galium; conditions: Postemergence
Method in brief: as §2

[14] = test system: ragweed (common ragweed, Ambrosia artemisiifolia); assay: Test A preemergence, ragweed; conditions: Preemergence; for Ragweed plant response rating: 125 g ai/ha, visual injury on 0 to 100 scale (0 no effect, 100 complete control), approximately 10 days; for Plant response rating, Ragweed: 0 to 100 scale (0 no effect, 100 complete control)
Method in brief: as §1

kochia (Bassia scoparia) [15] = assay: Test A postemergence, kochia; conditions: Postemergence
Method in brief: as §1

[16] = 125 g ai/ha, visual injury approx. 10 days, 0 to 100 scale (0 no effect, 100 complete control)
[17] = 500 g ai/ha, visual injury vs untreated controls after approx. 10 days, 0 to 100 scale (0 no effect, 100 complete control)
[18] = 125 g ai/ha, visual injury approx. 10 days
[19] = 500 g ai/ha, visual injury vs untreated controls after approx. 10 days
[20] = 31 g ai/ha, visual injury, approx. 10 days
[21] = 31 g ai/ha, visual injury on 0 to 100 scale (0 no effect, 100 complete control), approx. 10 days

| SMILES | Kochia plant response rating (kochia (Bassia scoparia) [1]) | Pigweed plant response rating [2] | Plant response rating, Corn (corn (Zea mays); [16]) | Plant response rating, Wheat [3, 16] | Plant response rating, Pigweed [4, 16] | Foxtail, Giant plant response rating [5] | Barnyardgrass plant response rating [6] | Plant response rating, Foxtail, Giant [7, 16] | Plant response rating, Blackgrass [8, 18] | Plant response rating, Ryegrass, Italian [9, 16] | Plant response rating, Ragweed [10, 16] | Ryegrass, Italian plant response rating [11] | Plant response rating, Barnyardgrass [12, 18] | Plant response rating, Galium [13, 16] | Ragweed plant response rating [14] | Plant response rating, Kochia (kochia (Bassia scoparia) [15]; [16]) | Plant response rating, Kochia (kochia (Bassia scoparia) [1]; [20]) | Plant response rating, Pigweed [2, 20] | Plant response rating, Corn (corn (Zea mays); [21]) | Plant response rating, Wheat [3, 21] | other results |
| --- | --- | --- | --- | --- | --- | --- | --- | --- | --- | --- | --- | --- | --- | --- | --- | --- | --- | --- | --- | --- | --- |
| COC1CCN(C(=O)c2cc(NS(=O)(=O)C(F)(F)F)c(C)c(F)c2C)CC1 [Compound 110] | 80 | 80 | 0 | 20 | 70 | 90 | 40 | 0 | 0 | 0 | 90 | 20 | 20 | 70 | 80 | 10 | – | – | – | – | Plant response rating, Kochia (kochia (Bassia scoparia) [1]; 500 g ai/ha): 100; Plant response rating, Pigweed ([2]; 500 g ai/ha): 100; Corn plant response rating (corn (Zea mays); [17]): 10; Wheat plant response rating [3, 17]: 60; Pigweed plant response rating [4, 17]: 100; Plant response rating, Foxtail, Giant ([5]; 500 g ai/ha): 100; Plant response rating, Barnyardgrass ([6]; 500 g ai/ha): 90; Foxtail, Giant plant response rating [7, 17]: 90; Blackgrass plant response rating [8, 19]: 0; Ryegrass, Italian plant response rating [9, 17]: 50; Ragweed plant response rating [10, 17]: 90; Plant response rating, Ryegrass, Italian ([11]; 500 g ai/ha): 90; Barnyardgrass plant response rating [12, 19]: 80; Galium plant response rating [13, 17]: 80; Plant response rating, Ragweed ([14]; 500 g ai/ha): 90; Kochia plant response rating (kochia (Bassia scoparia) [15]; [17]): 50 |
| COC1CN(C(=O)c2cc(NS(=O)(=O)C(F)(F)F)c(C)cc2C)C1 [Compound 111] | 50 | 90 | 40 | 50 | 90 | 60 | 30 | 60 | 0 | 30 | 90 | 70 | 80 | 70 | 40 | 60 | 0 | 10 | 0 | 0 | Plant response rating, Pigweed [4, 21]: 20; Plant response rating, Foxtail, Giant [5, 20]: 0; Plant response rating, Barnyardgrass [6, 20]: 10; Plant response rating, Foxtail, Giant [7, 21]: 0; Plant response rating, Blackgrass ([8]; 31 g ai/ha): 0; Plant response rating, Ryegrass, Italian [9, 21]: 30; Plant response rating, Ragweed [10, 21]: 70; Plant response rating, Ryegrass, Italian [11, 20]: 0; Plant response rating, Barnyardgrass ([12]; 31 g ai/ha): 40; Plant response rating, Galium [13, 21]: 50; Plant response rating, Ragweed [14, 20]: 10; Plant response rating, Kochia (kochia (Bassia scoparia) [15]; [21]): 20 |
| Cc1cc(C)c(C(=O)N2COC(C)(C)C2)cc1NS(=O)(=O)C(F)(F)F [Compound 112] | 60 | 100 | 20 | 40 | 60 | 50 | 30 | 50 | 30 | 60 | 90 | 30 | 70 | 90 | 90 | 30 | 10 | 50 | 0 | 0 | Plant response rating, Pigweed [4, 21]: 50; Plant response rating, Barnyardgrass [6, 20]: 20; Plant response rating, Foxtail, Giant [7, 21]: 10; Plant response rating, Blackgrass ([8]; 31 g ai/ha): 0; Plant response rating, Ryegrass, Italian [9, 21]: 0; Plant response rating, Ragweed [10, 21]: 80; Plant response rating, Ryegrass, Italian [11, 20]: 0; Plant response rating, Barnyardgrass ([12]; 31 g ai/ha): 40; Plant response rating, Galium [13, 21]: 90; Plant response rating, Ragweed [14, 20]: 30; Plant response rating, Kochia (kochia (Bassia scoparia) [15]; [21]): 20 |
| COC1CCN(C(=O)c2cc(NS(=O)(=O)C(F)(F)F)c(C)cc2C)C1 (stereo not drawn) [Compound 113] | 50 | 90 | 0 | 20 | 90 | 60 | 20 | 30 | 0 | 50 | 90 | 80 | 80 | 80 | 60 | 50 | 10 | 30 | 0 | 0 | Plant response rating, Pigweed [4, 21]: 80; Plant response rating, Foxtail, Giant [5, 20]: 10; Plant response rating, Barnyardgrass [6, 20]: 0; Plant response rating, Foxtail, Giant [7, 21]: 0; Plant response rating, Blackgrass ([8]; 31 g ai/ha): 0; Plant response rating, Ryegrass, Italian [9, 21]: 20; Plant response rating, Ragweed [10, 21]: 80; Plant response rating, Ryegrass, Italian [11, 20]: 0; Plant response rating, Barnyardgrass ([12]; 31 g ai/ha): 20; Plant response rating, Galium [13, 21]: 70; Plant response rating, Ragweed [14, 20]: 0; Plant response rating, Kochia (kochia (Bassia scoparia) [15]; [21]): 10 |
| COC(=O)N(c1cc(C(=O)N2CCCC(OC)C2)c(C)cc1C)S(=O)(=O)C(F)(F)F (stereo not drawn) [Compound 115] | 40 | 90 | 0 | 60 | 60 | 100 | 100 | 30 | 0 | 40 | 50 | 90 | 50 | 90 | 20 | 30 | 0 | 100 | 0 | 40 | Plant response rating, Pigweed [4, 21]: 30; Plant response rating, Foxtail, Giant [5, 20]: 100; Plant response rating, Barnyardgrass [6, 20]: 50; Plant response rating, Foxtail, Giant [7, 21]: 0; Plant response rating, Blackgrass ([8]; 31 g ai/ha): 0; Plant response rating, Ryegrass, Italian [9, 21]: 0; Plant response rating, Ragweed [10, 21]: 30; Plant response rating, Ryegrass, Italian [11, 20]: 70; Plant response rating, Barnyardgrass ([12]; 31 g ai/ha): 10; Plant response rating, Galium [13, 21]: 80; Plant response rating, Ragweed [14, 20]: 0; Plant response rating, Kochia (kochia (Bassia scoparia) [15]; [21]): 20 |
